Results: ChEMBL document CHEMBL5356958, “Discovery of a Highly Potent and Selective MYOF Inhibitor with Improved Water Solubility for the Treatment of Gastric Cancer” (J Med Chem, 2023)
Active and inactive are the calls of the source. No cut-off for these calls is given here.

Key:
MKN-45 [1] = experiment: Antiproliferative activity against human MKN-45 cells incubated for 48 hrs by SRB assay; assay type: functional, cell-based; conditions: MKN-45, 48 h
Myoferlin = Myoferlin (Homo sapiens, UniProt Q9NZM1); experiment: Binding affinity to MYOF in human MKN45 cells at 50 to 100 uM incubated for 1 hr by CETSA; assay type: cell-based; conditions: MKN-45, dose 50-100 µM
MGC-803 = experiment: Antiinvasive activity against human MGC-803 cells incubated for 24 hrs by crystal violet staining based inverted microscopic analysis; assay type: functional, cell-based
MKN-45 [2] = experiment: Inhibition of epithelial mesenchymal transition in human MKN-45 cells assessed as upregulation in E-cadherin level by Western blotting analysis; assay type: functional, cell-based; conditions: dose 100-400 nM
MKN-45 [3] = experiment: Induction of apoptosis in human MKN-45 cells assessed as early apoptotic cells at 200 nM incubated for 48 hrs by Annexin V-FITC/PI staining based flow cytometry analysis (reference value: 0.5%); assay type: functional
MKN-45 [4] = experiment: Induction of apoptosis in human MKN-45 cells assessed as late apoptotic cells at 200 nM incubated for 48 hrs by Annexin V-FITC/PI staining based flow cytometry analysis (reference value: 2.6%); assay type: functional
MKN-45 [5] = experiment: Induction of apoptosis in human MKN-45 cells assessed as late apoptotic cells at 400 nM incubated for 48 hrs by Annexin V-FITC/PI staining based flow cytometry analysis (reference value: 2.6%); assay type: functional
CYP1A = CYP1A (Homo sapiens, UniProt P04798+P05177); experiment: Inhibition of CYP1A in human liver microsomes; assay type: ADME, Microsome
[6] = Cmax in ICR mouse at 10 mg/kg, po; assay type: ADME, organism-based; design: dose 10 mg/kg, route po; conditions: in vivo
[7] = Mean residence time in ICR mouse at 1 mg/kg, iv; assay type: ADME, organism-based; conditions: in vivo
[8] = Toxicity in BALB/c mouse assessed as change in liver morphology at 15 to 30 mg/kg, ip measured every 3 days for 21 days by HE staining based assay; assay type: organism-based; conditions: in vivo, 504 h, dose 15-30 mg/kg, time 21 day
[9] = Toxicity in BALB/c mouse assessed as change in heart morphology at 15 to 30 mg/kg, ip measured every 3 days for 21 days by HE staining based assay; assay type: organism-based; conditions: in vivo, 504 h, dose 15-30 mg/kg, time 21 day
[10] = Toxicity in BALB/c mouse assessed as change in kidney morphology at 15 to 30 mg/kg, ip measured every 3 days for 21 days by HE staining based assay; assay type: organism-based; conditions: in vivo, 504 h, dose 15-30 mg/kg, time 21 day

Sequence of Myoferlin (Q9NZM1 whole entry): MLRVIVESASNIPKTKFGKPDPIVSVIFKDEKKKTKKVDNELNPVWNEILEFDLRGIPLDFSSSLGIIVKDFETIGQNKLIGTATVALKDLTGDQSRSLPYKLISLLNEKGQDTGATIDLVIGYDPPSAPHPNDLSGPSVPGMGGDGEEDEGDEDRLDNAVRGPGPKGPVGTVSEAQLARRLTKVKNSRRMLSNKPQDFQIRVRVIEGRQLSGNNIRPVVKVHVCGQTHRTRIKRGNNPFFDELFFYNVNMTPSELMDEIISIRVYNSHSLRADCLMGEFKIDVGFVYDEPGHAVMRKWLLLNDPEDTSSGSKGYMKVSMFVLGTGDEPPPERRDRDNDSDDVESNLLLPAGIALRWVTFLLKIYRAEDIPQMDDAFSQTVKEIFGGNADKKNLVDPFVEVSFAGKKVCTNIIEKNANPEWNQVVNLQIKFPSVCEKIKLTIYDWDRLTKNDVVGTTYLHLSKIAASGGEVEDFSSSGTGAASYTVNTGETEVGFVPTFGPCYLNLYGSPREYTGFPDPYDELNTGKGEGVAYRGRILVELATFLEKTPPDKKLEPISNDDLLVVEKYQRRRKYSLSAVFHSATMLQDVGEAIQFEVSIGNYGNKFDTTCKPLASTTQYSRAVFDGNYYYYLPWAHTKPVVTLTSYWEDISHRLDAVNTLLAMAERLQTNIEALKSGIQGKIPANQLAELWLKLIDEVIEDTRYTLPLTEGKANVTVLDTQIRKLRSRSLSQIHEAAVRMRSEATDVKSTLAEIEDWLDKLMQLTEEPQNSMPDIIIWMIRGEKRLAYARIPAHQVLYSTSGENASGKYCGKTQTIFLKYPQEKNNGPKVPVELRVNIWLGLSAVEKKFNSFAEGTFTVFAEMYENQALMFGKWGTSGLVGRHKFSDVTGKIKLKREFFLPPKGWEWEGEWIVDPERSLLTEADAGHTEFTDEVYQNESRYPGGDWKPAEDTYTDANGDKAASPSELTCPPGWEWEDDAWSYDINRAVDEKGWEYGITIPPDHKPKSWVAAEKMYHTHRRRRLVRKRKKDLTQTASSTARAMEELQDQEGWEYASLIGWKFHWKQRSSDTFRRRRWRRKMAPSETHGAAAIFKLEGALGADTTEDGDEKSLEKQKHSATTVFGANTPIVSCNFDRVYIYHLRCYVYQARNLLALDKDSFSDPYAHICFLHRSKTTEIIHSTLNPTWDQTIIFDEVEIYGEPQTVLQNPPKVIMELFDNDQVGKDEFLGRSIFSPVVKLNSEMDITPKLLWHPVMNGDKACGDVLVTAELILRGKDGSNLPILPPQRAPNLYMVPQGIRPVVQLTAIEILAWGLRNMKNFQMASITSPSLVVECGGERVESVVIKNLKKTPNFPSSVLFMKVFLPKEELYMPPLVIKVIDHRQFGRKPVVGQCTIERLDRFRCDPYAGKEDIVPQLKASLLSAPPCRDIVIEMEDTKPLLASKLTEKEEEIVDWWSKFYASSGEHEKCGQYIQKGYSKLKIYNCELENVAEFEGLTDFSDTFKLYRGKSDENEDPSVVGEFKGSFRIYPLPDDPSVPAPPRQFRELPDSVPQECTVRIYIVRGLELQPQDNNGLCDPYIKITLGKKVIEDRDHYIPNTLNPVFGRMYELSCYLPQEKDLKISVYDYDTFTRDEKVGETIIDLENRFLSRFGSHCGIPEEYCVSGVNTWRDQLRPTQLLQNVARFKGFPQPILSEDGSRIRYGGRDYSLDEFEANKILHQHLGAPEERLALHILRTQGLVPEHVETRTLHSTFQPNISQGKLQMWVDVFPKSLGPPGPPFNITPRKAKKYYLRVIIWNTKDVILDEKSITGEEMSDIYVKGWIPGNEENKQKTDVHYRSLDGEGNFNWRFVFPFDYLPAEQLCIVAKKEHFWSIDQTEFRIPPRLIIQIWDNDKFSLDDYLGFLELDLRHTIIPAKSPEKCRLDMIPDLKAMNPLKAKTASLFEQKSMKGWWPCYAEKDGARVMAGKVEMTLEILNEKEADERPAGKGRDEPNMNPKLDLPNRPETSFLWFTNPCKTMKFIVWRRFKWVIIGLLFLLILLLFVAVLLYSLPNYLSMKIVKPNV

CCc1nc(-c2ccc(OC)cc2)n(-c2cccc(C(=O)NCCCCn3nccn3)c2)n1
IC50 (MKN-45 [1]): 0.14 µM
Activity (Myoferlin): Active
Activity (MGC-803): Dose-Dependent Effect
IC50 (MGC-803; MGC-803, 24 h): 0.06 µM
inhibition (MKN-45 [2]): Dose-Dependent Effect
Activity (MKN-45 [3]): 1%
Activity (MKN-45 [4]): 4.7%
Activity (MKN-45 [5]): 37.6%
IC50 (CYP1A): > 50 µM
Cmax [6]: 5820 ng/mL
MRT [7]: 17.2 min
Activity [8]: Non-Toxic
Activity [9]: Non-Toxic
Activity [10]: Non-Toxic
